US5854002A (Rhone Poulenc, Inc., priority 1996, dated 1998)
Like-named read-outs stand apart in the source and are kept apart here.

What was measured:
Rat brain = experiment: [3H] muscimol binding, rat brain (previous assays of the inventors)
Excerpt: Data from fly heads and rat brains were obtained as described in Table 2.

Drosophila Rdl = target: T1, Drosophila Rdl (Drosophila melanogaster, UniProt P25123); experiment: [3H] muscimol radioligand binding assay, membranes of High Five cells infected with vBP8-Rdl
T1 construct: excised the full-length cDNA encoding Rdl; made in house; host or cells: High Five (Trichoplusia ni) cells, baculovirus vBP8-Rdl
T1 sequence (P25123 45-606): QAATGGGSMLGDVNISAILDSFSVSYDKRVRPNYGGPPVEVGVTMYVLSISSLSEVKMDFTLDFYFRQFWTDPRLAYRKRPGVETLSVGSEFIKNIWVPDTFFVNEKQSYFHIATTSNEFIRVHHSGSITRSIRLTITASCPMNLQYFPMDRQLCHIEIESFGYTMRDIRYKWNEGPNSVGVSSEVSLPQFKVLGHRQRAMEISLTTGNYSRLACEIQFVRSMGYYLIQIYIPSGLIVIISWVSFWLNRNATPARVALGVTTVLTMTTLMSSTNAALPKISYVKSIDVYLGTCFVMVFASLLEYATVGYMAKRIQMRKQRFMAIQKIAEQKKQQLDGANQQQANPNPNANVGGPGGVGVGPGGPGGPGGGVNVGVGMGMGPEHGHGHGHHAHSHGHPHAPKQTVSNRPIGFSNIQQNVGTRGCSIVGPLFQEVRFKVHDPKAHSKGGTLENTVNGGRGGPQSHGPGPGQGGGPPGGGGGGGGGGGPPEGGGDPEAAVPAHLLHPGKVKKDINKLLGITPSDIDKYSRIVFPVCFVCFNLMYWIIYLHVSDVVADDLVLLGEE
Protocol: (§1) High Five™ cells (derived from the cabbage loper, Trichoplusia ni, Invitrogen Corp.) were infected with vBP8-Rdl, vBP8-LCCH3, or vBP8-Grd, either singly or in various combinations. Cells were harvested at 3 days post-infection in tubes of approximately 6×10^7 cells per tube, the cells were pelleted by centrifugation, the supernatants discarded, and the pellets immediately stored at -80° C. This amount of tissue is sufficient for one 96-well microtiter plate. Membranes were prepared by first thawing and then resuspending the cell pellet in 25 mL of 10 mM phosphate buffer pH 7.4. The cells were gently homogenized with five strokes in a glass/Teflon homogenizer and the membranes pelleted by centrifugation at 120,000 g for 30 minutes. The membrane pellet was resuspended in 25 mL of 10 mM phosphate buffer pH 7.4, re-pelleted as above, and the pellet finally resuspended in 3 mL of buffer. The protein concentration was determined by the Bradford method (Bradford (1976) Anal. Biochem. 79:248) and then adjusted to 625 μg of protein per mL of 10 mM PBS, pH 7.4.
The reactions were incubated for 90 minutes at 4° C., and then terminated by filtration through Whatman GF/B glass fiber filters. Filters were washed with two 5 mL aliquots of cold buffer, and the radioactivity remaining on the filters was determined by liquid scintillation. Multiple assays were performed to test numerous compounds.

Drosophila Grd and LCCH3 = target: T2, Drosophila Grd and LCCH3 (Drosophila melanogaster, UniProt Q08832+Q24352); experiment: [3H] muscimol radioligand binding assay, membranes of High Five cells co-infected with vBP8-Grd/vBP8-LCCH3
T2 construct: made in house; host or cells: High Five (Trichoplusia ni) cells, co-infected with vBP8-Grd and vBP8-LCCH3
T2 sequence (Q24352 59-686): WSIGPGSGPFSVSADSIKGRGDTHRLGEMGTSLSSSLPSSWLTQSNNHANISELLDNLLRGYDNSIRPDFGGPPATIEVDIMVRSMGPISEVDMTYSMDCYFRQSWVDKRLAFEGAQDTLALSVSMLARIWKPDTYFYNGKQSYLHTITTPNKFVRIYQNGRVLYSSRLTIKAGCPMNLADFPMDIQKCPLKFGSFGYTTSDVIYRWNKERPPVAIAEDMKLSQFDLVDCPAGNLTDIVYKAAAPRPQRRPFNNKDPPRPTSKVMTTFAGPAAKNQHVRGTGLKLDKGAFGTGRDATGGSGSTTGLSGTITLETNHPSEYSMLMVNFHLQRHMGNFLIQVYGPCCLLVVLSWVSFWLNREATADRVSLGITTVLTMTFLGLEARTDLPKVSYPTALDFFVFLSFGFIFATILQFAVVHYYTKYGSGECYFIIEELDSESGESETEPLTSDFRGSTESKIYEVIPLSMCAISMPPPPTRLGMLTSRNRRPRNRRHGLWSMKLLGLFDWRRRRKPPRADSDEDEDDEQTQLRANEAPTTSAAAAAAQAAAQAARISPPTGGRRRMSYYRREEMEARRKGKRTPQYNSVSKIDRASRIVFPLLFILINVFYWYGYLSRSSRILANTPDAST
T2 sequence (Q08832 21-496): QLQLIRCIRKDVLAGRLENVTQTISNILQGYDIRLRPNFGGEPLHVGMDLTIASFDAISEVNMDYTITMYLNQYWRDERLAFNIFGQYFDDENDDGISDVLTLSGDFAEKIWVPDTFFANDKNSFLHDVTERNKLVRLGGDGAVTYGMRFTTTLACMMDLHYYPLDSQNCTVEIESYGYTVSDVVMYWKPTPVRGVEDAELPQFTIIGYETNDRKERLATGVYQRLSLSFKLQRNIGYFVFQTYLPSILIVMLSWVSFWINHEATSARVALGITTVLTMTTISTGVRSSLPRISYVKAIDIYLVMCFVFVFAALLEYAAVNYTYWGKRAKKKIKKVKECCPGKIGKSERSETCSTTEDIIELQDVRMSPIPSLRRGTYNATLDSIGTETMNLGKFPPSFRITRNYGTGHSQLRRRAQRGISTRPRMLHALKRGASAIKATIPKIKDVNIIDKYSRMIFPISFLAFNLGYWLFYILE
Protocol: as §1
The radioligand binding assays were composed of 200 μL membrane preparation (containing 125 μg protein), 100 μL of [^3 H] muscimol (to give a final concentration of 5 nM), 20 μL of unlabeled test compound, buffer or unlabeled muscimol, and 680 μL of 10 mM PBS, pH 7.4. […] The reactions were incubated for 90 minutes at 4° C., and then terminated by filtration through Whatman GF/B glass fiber filters. Filters were washed with two 5 mL aliquots of cold buffer, and the radioactivity remaining on the filters was determined by liquid scintillation. Multiple assays were performed to test numerous compounds.

[1] = test system: insect cells infected with either vBP8-Grd, vBP8-LCCH3, or co-infected with vBP8-Grd and vBP8-LCCH3; experiment: Whole cell voltage clamp recordings of infected insect cells; type: cell-based, Drosophila; details: GABA applications of up to 1 mM, 30 to 36 hours post-infection, any of the three infected cell types
Protocol: Insect cells infected with either vBP8-Grd, vBP8-LCCH3, or co-infected with vBP8-Grd and vBP8-LCCH3 were analyzed for the expression and assembly of functional GABA-gated chloride channels. Whole cell voltage clamp recordings were made at between 30 and 36 hours post-infection. […] However, no specific [^3 H]EBOB binding was detected in cells infected with any combination of virus.

[2] = half-maximal displacement of [3H] muscimol, previous assays by the inventors
[3] = half-maximal displacement of [3H] muscimol, read-out: IC50, Rdl
[4] = half-maximal displacement of [3H] muscimol, read-out: IC50, Grd/LCCH3

| Structure (SMILES) | IC50 (Rat brain; [2]) [µM] | IC50 (Drosophila Rdl; [3]) [µM] | IC50 (Drosophila Grd and LCCH3; [4]) [µM] | IC50 (Drosophila Rdl) [µM] | IC50 (Drosophila Grd and LCCH3) [µM] | Depolarization in whole cell voltage clamp [1] | IC50 (Rat brain) [µM] |
| --- | --- | --- | --- | --- | --- | --- | --- |
| NCCCCC(=O)O [5-amino-valeric acid] | > 1000 | 2.1 | 0.749 | – | – | – | – |
| NCC(CC(=O)O)c1ccc(Cl)cc1 (centres unmarked) [Baclofen] | > 1000 | > 1000 | > 1000 | – | – | – | – |
| CN1CCc2cc3c(cc2[C@H]1[C@@H]1OC(=O)c2c1ccc1c2OCO1)OCO3 [Bicuculline] | 19 | – | – | > 1000 | > 1000 | – | – |
| NCCCC(=O)O [GABA, γ-aminobutyric acid] | – | – | 0.038 | – | – | Depolarization was not detected | – |
| COc1ccc(-c2ccc(=N)n(CCCC(=O)O)n2)cc1 [Gabazine] | – | > 1000 | > 1000 | – | – | – | 0.483 |
| COc1ccc2c(c1OC)C(=O)O[C@@H]2[C@H]1c2cc3c(cc2CCN1C)OCO3 [Hydrastine] | 2.61 | – | – | > 1000 | > 1000 | – | – |
